From PMC11784652, “Two complementing in vivo selection systems based on CCA-trimming exonucleases as a tool to monitor, select and evaluate enzymatic features of tRNA nucleotidyltransferases” (RNA Biology, 2025) come the findings set out here.

Substitutions are numbered along the chain they refer to.

The target in assay [1] is T1, HsaCCA (human CCA-adding enzyme, tRNA nucleotidyltransferase) (Homo sapiens, UniProt Q96Q11).
T1 construct: gene TRNT1; N-terminal His-tag, pET28a(+), expressed in E. coli BL21(DE3) delta-cca
T1 sequence (Q96Q11 30-434): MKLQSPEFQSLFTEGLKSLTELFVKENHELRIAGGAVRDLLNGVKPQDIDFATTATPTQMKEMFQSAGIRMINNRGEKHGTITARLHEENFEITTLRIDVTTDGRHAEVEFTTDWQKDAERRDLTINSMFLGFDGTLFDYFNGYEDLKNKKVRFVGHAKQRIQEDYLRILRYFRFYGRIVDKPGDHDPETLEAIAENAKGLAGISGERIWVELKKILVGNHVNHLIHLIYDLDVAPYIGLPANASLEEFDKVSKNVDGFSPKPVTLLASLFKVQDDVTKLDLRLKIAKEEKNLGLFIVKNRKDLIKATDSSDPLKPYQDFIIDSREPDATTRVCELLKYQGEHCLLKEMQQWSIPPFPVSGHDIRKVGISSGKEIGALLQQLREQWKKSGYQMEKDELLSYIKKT
Put plainly: in vitro nucleotide incorporation on […]-labelled yeast tRNA-Phe-CC. Particulars: 1 mM ATP, A-addition, co-substrate tRNA-Phe-CC, 37 °C; no binding to apoenzyme detected by DRaCALA. It counts as biochemical.

The target in assay [2] is T2, HsaCCA (human CCA-adding enzyme, tRNA nucleotidyltransferase) (Homo sapiens, UniProt Q96Q11, E193G).
T2 construct: gene TRNT1; N-terminal His-tag, pET28a(+), expressed in E. coli BL21(DE3) delta-cca
T2 sequence (Q96Q11 30-434 E193G): T1 sequence (Q96Q11 30-434) with E164G
In words: DRaCALA (nitrocellulose radioligand spot assay). It counts as binding. Particulars: 4 °C, 10 min, HEPES/KOH pH 7.6, 30 mM KCl, 6 mM MgCl2, no tRNA; 1 nM labelled compound (α-32P).

Assay [3] deals with T1, HsaCCA (human CCA-adding enzyme, tRNA nucleotidyltransferase). Put plainly: DRaCALA (nitrocellulose radioligand spot assay). Particulars: 4 °C, 10 min, HEPES/KOH pH 7.6, 30 mM KCl, 6 mM MgCl2, no tRNA; 1 nM labelled compound (α-32P). It counts as binding.

For `Nc1ncnc2c1ncn2[C@@H]1O[C@H](COP(=O)(O)OP(=O)(O)OP(=O)(O)O)[C@@H](O)[C@H]1O` [ATP], the “in vitro nucleotide incorporation on 32P-labelled yeast tRNA-Phe-CC” value in assay [1] was “Both enzyme versions readily add the terminal A if NTPs (N) or only ATP”.

In the case of `Nc1ccn([C@@H]2O[C@H](COP(=O)(O)OP(=O)(O)OP(=O)(O)O)[C@@H](O)[C@H]2O)c(=O)n1` [CTP], the “DRaCALA (nitrocellulose radioligand spot assay)” value in assay [2] is “CTP binding of HsaCCA E164G seems to be less efficient compared to the wt enzyme”; in assay [3] it was “Both HsaCCA wt and HsaCCA E164G showed robust interaction with CTP”.
